Columns and labels:
[1] = Hygroscopicity study by DVS (Dynamic Vapour Sorption); assay type: physicochemical; conditions: 25° C.
Experimental: Hygroscopicity study was determined by DVS (Dynamic Vapour Sorption) with a Q5000 TA instrument. This is a gravimetric technique that measures how much water is absorbed or desorbed by a sample at different relative humidity (RH). At each RH, the sample mass must be allowed to reach gravimetric equilibrium (or surpassed time limit) before progressing to the next humidity level. Sorption and desorption isotherms were performed at 25° C. over a range of 0-95% RH. The samples gently milled were not previously dried but they were exposed to 0% RH until a stable weight was reached before starting the DVS cycle. This equilibration step allows possible adsorbed humidity to be eliminated.

[2] = Preliminary stability in water at RT (slurry, XRPD); assay type: physicochemical; conditions: XRPD at 1, 3, 6 and 24 h
Experimental: A preliminary test stability study in water at RT of 4 ETP monoethanolamine salt Forms was performed in order to observed possible crystalline transitions. A sample of each crystalline form was slurried in water at RT and periodically analysed by XRPD (1, 3, 6 and 24 h) in order to detect possible crystalline transformation.

[3] = Relative thermodynamic solubility in water at RT by HPLC; assay type: physicochemical; conditions: for Intensity test average: average of solubility tests #1 and #2, water; for Intensity test average / Solubility test #1 (area counts) / Solubility test #2 (area counts): RT; for Solubility test #1 (area counts) / Solubility test #2 (area counts): water, 24 h stirring, HPLC ETP peak area of saturated solution
Experimental: This suspension was stirred 24 h at RT in order to reach the equilibrium. Then, a sample was filtered and the resulting filtrate was analysed by HPLC by duplicate. The average peak area of ETP gave a relative value of the thermodynamic solubility of each form that can be compared with each other. The solids recovered after filtration were also analysed by XRPD to check that no crystalline phase transformation occurred during the slurring.
The following HPLC conditions were used to determine the relative solubility (due to their short analysis time and good response): • Column: C18 Zorbax Eclipse (XDB), 150×4.6 mm, 5 μm • Sample concentration: Saturated water solution of the ETP monoethanolamine salt • Mobile phase: ACN:MeOH:H2O (55:35:10) at pH=6.0+/−0.2 • Temperature: 27° C. • Flow rate: 1 mL/min • UV detector wavelength: 230 nm • Injection: 5 μL • Run time: 10 min
HPLC ETP peak area in each of the different forms analysed was measured in order to establish their relative solubility. The HPLC analyses were performed by duplicate for each ETP monoethanolamine salt.

[4] = Crystalline stability of Form D under accelerated ICH guideline conditions (XRPD); assay type: physicochemical
Description: […] […] This sample was periodically analysed by XRPD in order to observe possible crystalline transformation or amorphization. Moreover, a sample of ETP monoethanolamine salt Form D stored on a XRPD silicon holder was exposed in a climatic chamber. It is worth noting that these stability conditions are harsher than standard stability conditions due to the high surface of exposition of the solid stored on the XRPD silicon holder. The samples were periodically analysed by XRPD to observe possible crystalline transformation.

[5] = cited from earlier work

Row | Structure (SMILES) | humidity adsorbed (water uptake) ([1]; at 95% RH) | crystalline stability slurried in water [2] | Intensity test average [3] | Solubility test #1 (area counts) [3] | Solubility test #2 (area counts) [3] | hygroscopicity ([1]; 0-95% RH) | relative solubility in water ([3]; water at RT, ranking among the 4 forms) | crystalline transformation by XRPD ([4]; 14 weeks study period) | time the crystalline form remains stable ([4]; climate chamber-75±5% RH, on XRPD sample holder) | thermally stable up to ([5]; at higher temperature endothermic reaction associated with degradation) | solubility in water [5]
1 | CC1=NN(c2ccc(C)c(C)c2)C(=O)/C1=N\Nc1cccc(-c2cccc(C(=O)O)c2)c1O.NCCO [Form H2] | 0.6% | remained stable 24 h | 2867 | 3068 area counts | 2665 area counts |  |  |  |  |  | 
2 | CC1=NN(c2ccc(C)c(C)c2)C(=O)/C1=N\Nc1cccc(-c2cccc(C(=O)O)c2)c1O [Form D] |  | remained stable 24 h | 8066 | 7930 area counts | 8201 area counts | not hygroscopic up to 85% RH | most soluble form in water at RT | polymorphic transition, hydrate formation or amorphization was not observed | at least 14 weeks |  | 
3 | CC1=NN(c2ccc(C)c(C)c2)C(=O)/C1=N\Nc1cccc(-c2cccc(C(=O)O)c2)c1O [Form D1] |  | remained stable 24 h | 2911 | 2722 area counts | 3100 area counts |  |  |  |  |  | 
4 | CC1=NN(c2ccc(C)c(C)c2)C(=O)/C1=N\Nc1cccc(-c2cccc(C(=O)O)c2)c1O [Eltrombopag olamine] |  |  |  |  |  |  |  |  |  | about 125 °C | sparingly soluble in water
